Assay: osmotic coefficient (dimensionless); mn = molality of the nth substance listed, in mol/kg
Details: Liquid, isopiestic method

O.O=C([O-])C(=O)[O-].[K+].[K+] [potassium oxalate monohydrate] + O
Details	osmotic coefficient
298.15 K, m1 = 0.2731	0.764
298.15 K, m1 = 0.3247	0.747
298.15 K, m1 = 0.3721	0.742
298.15 K, m1 = 0.4551	0.736
298.15 K, m1 = 0.4898	0.737
298.15 K, m1 = 0.5836	0.735
298.15 K, m1 = 0.7175	0.741
298.15 K, m1 = 0.8532	0.747
298.15 K, m1 = 0.879	0.746
298.15 K, m1 = 1.163	0.76
298.15 K, m1 = 1.224	0.76
298.15 K, m1 = 1.403	0.77
298.15 K, m1 = 1.446	0.771
298.15 K, m1 = 1.553	0.775
298.15 K, m1 = 1.631	0.777
298.15 K, m1 = 1.763	0.782
298.15 K, m1 = 1.86	0.789
298.15 K, m1 = 1.865	0.787
298.15 K, m1 = 1.961	0.791
298.15 K, m1 = 2.166	0.801
308.15 K, m1 = 0.197	0.768
308.15 K, m1 = 0.2519	0.745
308.15 K, m1 = 0.2974	0.737
308.15 K, m1 = 0.3637	0.734
308.15 K, m1 = 0.4596	0.726
308.15 K, m1 = 0.5269	0.72
308.15 K, m1 = 0.5465	0.719
308.15 K, m1 = 0.5956	0.719
308.15 K, m1 = 0.6873	0.722
308.15 K, m1 = 0.7481	0.721
308.15 K, m1 = 0.8067	0.719
308.15 K, m1 = 0.8889	0.721
308.15 K, m1 = 0.9189	0.724
308.15 K, m1 = 1.088	0.73
308.15 K, m1 = 1.269	0.739
308.15 K, m1 = 1.541	0.751
308.15 K, m1 = 1.754	0.768
308.15 K, m1 = 1.933	0.777
308.15 K, m1 = 1.991	0.782
308.15 K, m1 = 2.108	0.792
308.15 K, m1 = 2.305	0.804
318.15 K, m1 = 0.2751	0.729
318.15 K, m1 = 0.3201	0.725
318.15 K, m1 = 0.3228	0.721
318.15 K, m1 = 0.4383	0.709
318.15 K, m1 = 0.4892	0.709
318.15 K, m1 = 0.596	0.705
318.15 K, m1 = 0.7938	0.704
318.15 K, m1 = 0.8879	0.707
318.15 K, m1 = 1.088	0.715
318.15 K, m1 = 1.261	0.72
318.15 K, m1 = 1.296	0.725
318.15 K, m1 = 1.643	0.749
318.15 K, m1 = 1.671	0.748
318.15 K, m1 = 1.72	0.754
318.15 K, m1 = 1.738	0.752
318.15 K, m1 = 1.869	0.763
318.15 K, m1 = 2.217	0.78

Source: the NIST ThermoML archive (doi:10.1021/je100760v)
